Assay results: article PMC8667888, “Discovery of a novel Aurora B inhibitor GSK650394 with potent anticancer and anti-aspergillus fumigatus dual efficacies in vitro” (Journal of Enzyme Inhibition and Medicinal Chemistry, 2021)
Where “and” joins values, the source holds several entries; their conditions need not be identical. Equal entries are not always repeated.

How the values were obtained:
HELF = assay: MTT cell proliferation assay, HELF; type: cell-based; settings: read-out: IC50, inhibition of proliferation
Method: (§1) MTT assay was conducted for cell proliferation analysis. Cells were cultured in 96-well plates (6 × 10^3/well) and treated with drugs or left untreated for 24–72 h. After treatment, cells were incubated with MTT solution (0.5 mg/mL) for 4 h at 37 °C. Then, the reactions were terminated by DMSO and the optical densities were measured by absorbance at 570 nm.

MCF-7 = assay: MTT cell proliferation assay, MCF-7; type: cell-based; settings: Homo sapiens, MCF7; MCF-7, MTT; read-out: IC50, inhibition of proliferation
Method: as §1

Hela = assay: MTT cell proliferation assay, Hela; type: cell-based; settings: Homo sapiens, read-out: IC50, inhibition of proliferation
Method: as §1

V91A Aurora B = molecular target: T1, V91A Aurora B (Homo sapiens, UniProt Q96GD4, V91A); assay: Luciferase-coupled ATP assay, V91A mutant Aurora B; type: biochemical
T1 construct: the Hs.Aurora B kinase domain (aa.70–344) was co-expressed in E. coli cells; made in house; host or cells: E. coli BL21 (DE3) pLysS
T1 sequence (Q96GD4 70-344 V91A): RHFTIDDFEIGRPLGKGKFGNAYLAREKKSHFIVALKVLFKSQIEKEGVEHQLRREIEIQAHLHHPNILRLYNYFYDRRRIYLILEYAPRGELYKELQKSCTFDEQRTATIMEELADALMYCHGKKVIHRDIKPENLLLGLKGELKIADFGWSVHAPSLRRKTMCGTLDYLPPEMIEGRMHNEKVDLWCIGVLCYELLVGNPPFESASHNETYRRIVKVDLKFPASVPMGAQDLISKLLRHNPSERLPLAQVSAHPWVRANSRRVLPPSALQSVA
T1 sequence (Q9NQS7 835-904 partner limits assumed): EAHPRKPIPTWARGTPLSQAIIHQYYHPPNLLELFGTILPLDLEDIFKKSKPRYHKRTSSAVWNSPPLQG
Method: (§2) A luciferase-based luminescence assay was utilised to determine the ATPase activity of Aurora B according to the manufacture’s protocols (Promega). Briefly, the Aurora B protein was incubated with 10 µM ATP in the absence or presence of various drugs at 30 °C, in a kinase buffer containing 50 mM Tris-HCl, pH7.4, 100 mM NaCl, 10 mM MgCl2, 1 mM DTT, and 0.1% Tween20. At the end of the reaction, the Kinase-Glo reagent (Promega) was added and the ATPase activity was evaluated by luminescence measurement on the microplate reader (SpectraMax-L, Molecular Devices).

Aspergillus fumigatus = assay: Anti-Aspergillus fumigatus plate assay; type: cell-based; settings: 37 °C, 30 h
Method: A plate assay was carried out to assess the growth rate of Aspergillus fumigatus. A specified amount of Aspergillus fumigatus spores were inoculated on the centre of the plate containing solid glucose minimal medium in the absence or presence of drugs. After further incubation for 30 h at 37 °C, the growth rate was determined by measuring the diameter of Aspergillus fumigatus clonies on each plate.

Af.Aurora B [1] = molecular target: T2, Af.Aurora B (Aspergillus fumigatus, UniProt B0XW52); assay: Luciferase-coupled ATP assay (ATPase activity), Af.Aurora B; type: biochemical; settings: IC50, inhibition of ATPase activity of Af.Aurora B, recombinant Af.Aurora B, n = 3
Method: (§3) The pGEX-dual expression plasmid containing human (Hs.) Aurora B kinase domain (aa.54–344) and a C-terminal fragment of Hs.INCENP (aa.835–904) was obtained from Prof. Hongtao Yu (Department of Life Science, Westlake University). The cDNAs of Af.Aurora B kinase domain (aa.1–396, GenBank accession no. EDP54304.1) and the C-terminal fragment of Af.INCENP (aa.1200–1297, GenBank accession no. XP_033417438.1) was synthesised in Union Biotech (China). Protein expression and purification were performed as previously described. Briefly, The recombinant proteins of Aurora B and INCENP were coexpressed in BL21 (DE3) pLysS competent cells. For protein purification, cells co-expressing GST-INCENP and Aurora B proteins were resuspended with lysis buffer containing 50 mM Tris-HCl, pH 8.0, 200 mM NaCl, 5% glycerol, and 0.05% Triton X-100. Cells were disrupted by French Pressure (Union Biotech, China) and the supernatants were collected after centrifugation. The Aurora B/Hs.INCENP complex proteins were pooled through Glutathione columns (Smart-Lifesciences, China). […]
(§4) A luciferase-based luminescence assay was utilised to determine the ATPase activity of Aurora B according to the manufacture’s protocols (Promega). […] At the end of the reaction, the Kinase-Glo reagent (Promega) was added and the ATPase activity was evaluated by luminescence measurement on the microplate reader (SpectraMax-L, Molecular Devices).

[2] = tested on: endogenous Aurora B in HepG2 cells; assay: Histone H3 Ser10 phosphorylation in HepG2 cells (immunoblot); type: cell-based, human; settings: HepG2, 9 h after release from thymidine arrest
Method: (§5) HepG2 and HeLa cells were cultured in DMEM and RPMI-1640, respectively, supplemented with 10% foetal bovine serum in 37 °C and 5% CO2. G1/S synchronisation was carried out by treating cells with 2 mM of thymidine for 19 h. […] Subsequently, cells were harvested and subjected to immunoblotting or flow cytometric analysis. For flow cytometry assay, cells were trypsinized, washed once with PBS, and then fixed with cold 75% ethanol. Fixed cells were washed with PBS and resuspended in PBS containing the propidium iodide (Sigma) DNA staining solution, for 30 min at 37 °C. Then, samples were analysed using the Cytoflex cytometer (Beckman Coulter, USA) and the data were processed with the Flow Jo software.

human Haspin = molecular target: T3, human Haspin (Homo sapiens, UniProt Q8TF76); assay: Luciferase-coupled ATP assay (ATPase activity), human Haspin; type: biochemical; settings: read-out: IC50, inhibition of human Haspin ATPase activity
T3 sequence (Q8TF76 1-798): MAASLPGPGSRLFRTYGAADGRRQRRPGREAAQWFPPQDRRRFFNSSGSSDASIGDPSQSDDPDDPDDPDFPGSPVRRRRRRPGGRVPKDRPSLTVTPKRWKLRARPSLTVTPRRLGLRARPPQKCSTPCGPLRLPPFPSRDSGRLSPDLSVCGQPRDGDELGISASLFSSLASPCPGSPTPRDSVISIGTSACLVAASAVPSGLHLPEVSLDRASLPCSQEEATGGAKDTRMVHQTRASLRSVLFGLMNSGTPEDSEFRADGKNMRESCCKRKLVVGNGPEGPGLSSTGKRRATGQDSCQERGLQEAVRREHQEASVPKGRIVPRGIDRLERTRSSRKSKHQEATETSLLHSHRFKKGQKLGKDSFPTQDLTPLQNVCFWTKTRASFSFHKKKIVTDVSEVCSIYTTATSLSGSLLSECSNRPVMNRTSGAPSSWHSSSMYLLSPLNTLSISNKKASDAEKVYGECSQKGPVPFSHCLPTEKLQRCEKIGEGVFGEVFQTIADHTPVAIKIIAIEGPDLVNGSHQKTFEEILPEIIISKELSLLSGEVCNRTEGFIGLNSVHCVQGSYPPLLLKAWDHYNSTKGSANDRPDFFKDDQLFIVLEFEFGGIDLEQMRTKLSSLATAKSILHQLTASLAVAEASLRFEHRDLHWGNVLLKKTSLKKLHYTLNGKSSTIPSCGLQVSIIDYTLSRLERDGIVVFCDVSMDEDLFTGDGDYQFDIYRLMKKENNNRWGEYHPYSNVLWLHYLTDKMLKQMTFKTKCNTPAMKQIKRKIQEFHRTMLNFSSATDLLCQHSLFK
Method: as §2
Fig. S2 Effect of GSK650394 on human Haspin. (a) Comparison of ATPase activity between Aurora B and Haspin. The luminescence of ATP only control was normalized to 1.0. The values were normalized to ATP-only control set as 100% inhibition. Values are means ± S.E., n = 3. (b) Inhibition of human Haspin ATPase […]
(1 picture or pasted object on this page, not shown here)

Af.Aurora B [3] = molecular target: T2, Af.Aurora B; assay: In vitro kinase assay (histone H3 phosphorylation), Af.Aurora B; type: biochemical; settings: Western blot
Method: (§6) The in vitro kinase assay was performed as previously described. The kinase activity of recombinant Aurora B was assayed by incubating 200 nM purified Aurora B/INCENP protein with 100 µM ATP and 6 µg bulk histones (from calf thymus, Sigma-Aldrich) in kinase buffer containing 50 mM Tris-HCl, pH7.4, 100 mM NaCl, 10 mM MgCl2, 1 mM DTT and 0.1% Tween20. After 15-min incubation at 30 °C, the reaction was quenched by SDS-sample buffer, separated on SDS-PAGE, and immunoblotted with anti-histone H3 and anti-histone H3 phospho-Ser10 (pS10) antibodies. The blots were scanned and quantified with the ChemiDoc™ Touch imaging system (Bio-rad). To investigate the compounds’ inhibitory effect, Aurora B was pre-incubated with DMSO or various concentrations of drugs for 15 min at room temperature and the reactions were then initialised by the addition of ATP and histone substrates.

LO2 = assay: MTT cell proliferation assay, LO2; type: cell-based; settings: Homo sapiens, L02, read-out: IC50, inhibition of proliferation
Method: as §1

[4] = tested on: endogenous Aurora B in HeLa cells; assay: Histone H3 Ser10 phosphorylation in HeLa cells (immunoblot); type: cell-based, human; settings: 9 h after release from thymidine arrest, vs control cells
Method: as §5

HepG2 = assay: MTT cell proliferation assay, HepG2; type: cell-based; settings: Homo sapiens, read-out: IC50, inhibition of proliferation
Method: as §1

human Aurora B [5] = molecular target: T4, human Aurora B (Homo sapiens, UniProt Q96GD4); assay: In vitro kinase assay (histone H3 Ser10 phosphorylation), human Aurora B; type: biochemical; settings: Western blot
T4 construct: the Hs.Aurora B kinase domain (aa.70–344) was co-expressed in E. coli cells; made in house; host or cells: E. coli BL21 (DE3) pLysS
T4 sequence (Q96GD4 70-344): as the sequence (Q96GD4 70-344 V91A) above, with A22V counted along it
T4 sequence (Q9NQS7 835-904 partner limits assumed): as the sequence (Q9NQS7 835-904 partner limits assumed) above
Method: as §6

human Aurora B [6] = molecular target: T4, human Aurora B; assay: Luciferase-coupled ATP assay (ATPase activity), human Aurora B; type: biochemical
Method: as §3, §4

[7] = tested on: acute myelogenous leukaemia (AML); set-up: method as in PMID 23763917; settings: patients with AML, combined with low-dose cytosine arabinoside (LDAC); cited from earlier work

O=C(O)c1ccc(-c2c[nH]c3ncc(-c4ccccc4)cc23)cc1C1CCCC1 [GSK650394]
IC50 (HELF): 6140 ± 1330 nM | IC50 (MCF-7): 1420 ± 1190 nM | IC50 (Hela): 3570 ± 1380 nM | reduction of inhibitory effect by mutation of Val91 (V91A Aurora B; V91A vs wild type): > 20 fold | IC50 (V91A Aurora B; Val91 mutant, read-out: IC50, inhibition of V91A Aurora B): > 100000 nM | growth rate of Aspergillus fumigatus (diameter of colonies) (Aspergillus fumigatus): markedly inhibited in a dose-dependent manner | IC50 (Af.Aurora B [1]): 1290 nM and 1300 nM | concentration at which H3 phosphorylation is abolished [2]: 2.5 µM | effect on histone H3 phosphorylation ([2]; vs control cells): significant attenuation of histone H3 phosphorylation | IC50 (human Haspin): 41400 nM | effect on kinase activity of Af. Aurora B (Af.Aurora B [3]): effectively inhibits | IC50 (LO2): 1750 ± 1280 nM | effect on histone H3 phosphorylation [4]: significant attenuation of histone H3 phosphorylation | IC50 (HepG2): 1530 ± 1880 nM | effect on phosphorylation of histone H3 Ser10 by Aurora B (human Aurora B [5]): diminish the phosphorylation of histone H3 Ser10 | IC50 (human Aurora B [6]): 5680 nM

CCN(CCCOc1ccc2c(Nc3cc(CC(=O)Nc4cccc(F)c4)n[nH]3)ncnc2c1)CCOP(=O)(O)O [barasertib]
overall response rate [7]: 45%
